Test results reported in ChEMBL document CHEMBL5321276, “Novel Benzimidazoles as Potent Small-Molecule Inhibitors and Degraders of V-Domain Ig Suppressor of T-Cell Activation (VISTA)” (J Med Chem, 2023).
pKd: −log10 of the molar value. One block for each compound: values may come before it. Activity calls are given as the source filed them. The calls are words filed in the database; no cut-off is given here.

What was measured:
[1] = target: T1, V-type immunoglobulin domain-containing suppressor of T-cell activation (Homo sapiens, UniProt Q9H7M9); assay: Binding affinity to human VISTA assessed as dissociation constant by SPR assay
T1 sequence (Q9H7M9 whole entry): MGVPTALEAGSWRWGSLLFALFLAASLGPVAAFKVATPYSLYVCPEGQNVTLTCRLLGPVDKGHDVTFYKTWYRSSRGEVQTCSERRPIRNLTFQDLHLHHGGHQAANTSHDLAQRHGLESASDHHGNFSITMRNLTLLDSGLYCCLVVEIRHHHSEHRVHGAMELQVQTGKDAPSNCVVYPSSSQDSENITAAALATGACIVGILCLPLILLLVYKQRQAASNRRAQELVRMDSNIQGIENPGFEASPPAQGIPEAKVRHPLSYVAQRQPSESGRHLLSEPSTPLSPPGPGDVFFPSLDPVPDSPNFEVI

[2] = target: T2, V-type immunoglobulin domain-containing suppressor of T-cell activation (Homo sapiens) (UniProt Q9H7M9); assay: Inhibition of Fc fused VISTA in CD3/CD28/CD2 T cell activator stimulated human PBMC cells assessed as induction of IFN-gamma secretion at 5 to 10 uM measured after 48 hrs by ELISA assay; type: cell-based; conditions: dose 5-10 µM
T2 sequence (whole entry): T1 sequence (Q9H7M9 whole entry)

MDA-MB-231 [3] = assay: Cytotoxicity against human MDA-MB-231 cells assessed as reduction in cell viability at 5 uM; type: toxicity, cell-based; conditions: mda-mb-231, 5 µM
[4] = target: T3, V-type immunoglobulin domain-containing suppressor of T-cell activation (Mus musculus, UniProt Q9D659); assay: Binding affinity to mouse VISTA assessed as dissociation constant incubated for 10 mins by MST assay
T3 sequence (Q9D659 whole entry): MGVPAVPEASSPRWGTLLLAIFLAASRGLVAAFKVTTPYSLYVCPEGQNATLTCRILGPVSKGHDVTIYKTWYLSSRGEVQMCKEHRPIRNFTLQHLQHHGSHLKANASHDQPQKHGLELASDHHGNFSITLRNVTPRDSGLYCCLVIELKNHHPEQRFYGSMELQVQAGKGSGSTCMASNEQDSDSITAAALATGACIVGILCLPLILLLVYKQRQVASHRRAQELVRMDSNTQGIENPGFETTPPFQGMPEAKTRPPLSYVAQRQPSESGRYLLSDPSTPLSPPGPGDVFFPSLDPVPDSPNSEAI

HepG2 [5] = assay: Induction of autophagy in human HepG2 cells assessed as induction of VISTA degradation at 10 uM measured upto 4 hrs in presence of cycloheximide by Western blotting analysis; type: functional, cell-based
HepG2 [6] = assay: Induction of autophagy in human HepG2 cells harboring adenovirus-mCherry-GFP-LC3B assessed as increase in LC3 puncta accumulation measured after 24 hrs by inverted fluorescence microscopic analysis; type: functional, cell-based; conditions: dose 5-10 µM
HepG2 [7] = assay: Induction of autophagy in human HepG2 cells assessed as induction of VISTA degradation at 10 uM measured after 24 hrs in presence of pepstatin A by Western blotting analysis; type: functional, cell-based
CT26 [8] = assay: Antitumor activity against po dosed mouse CT26 cells implanted in BALB/c mouse assessed as increase in infiltration of CD8 positive cells in tumor administered once daily for 15 days by DAPI staining based fluorescent inverted microscopic analysis; type: functional, organism-based; conditions: dose 30-120 mg/kg, time 15.0 day
CT26 [9] = assay: Antitumor activity against mouse CT26 cells implanted in BALB/c mouse assessed as induction of VISTA degradation in tumor at 30 to 120 mg/kg, po administered once daily for 15 days by Western blotting analysis; type: functional, organism-based; conditions: dose 30-120 mg/kg, time 15.0 day
HepG2 [10] = assay: Induction of autophagy in human HepG2 cells assessed as induction of VISTA degradation measured after 24 hrs by Western blotting analysis; type: functional, cell-based; conditions: dose 5-10 µM
HepG2 [11] = assay: Induction of autophagy in human HepG2 cells assessed as induction of VISTA degradation at 10 uM measured after 24 hrs in presence of chloroquine by Western blotting analysis; type: functional, cell-based
CT26 [12] = assay: Antitumor activity against mouse CT26 cells implanted in BALB/c mouse assessed as tumor growth inhibition at 120 mg/kg, po administered once daily for 15 days; type: functional; conditions: CT26, 360 h, time 15 day, read-out: TGI
CT26 [13] = assay: Antitumor activity against mouse CT26 cells implanted in BALB/c mouse assessed as tumor growth delay at 30 to 120 mg/kg, po administered once daily for 15 days by Hematoxylin and eosin based analysis; type: functional, organism-based; conditions: dose 30-120 mg/kg, time 15.0 day
PBMC = assay: Cytotoxicity against human PBMC cells assessed as reduction in cell viability at 5 uM; type: toxicity, cell-based
CT26 [14] = assay: Antitumor activity against mouse CT26 cells implanted in BALB/c mouse assessed as tumor shrinkage at 30 to 120 mg/kg, po administered once daily for 15 days by Hematoxylin and eosin based analysis; type: functional, organism-based; conditions: dose 30-120 mg/kg, time 15.0 day
[15] = Toxicity in BALB/c mouse implanted with mouse CT26 cells assessed as mortality at 30 to 120 mg/kg, po administered once daily for 15 days; type: organism-based; conditions: in vivo, 360 h, dose 30-120 mg/kg, time 15 day
HepG2 [16] = assay: Induction of autophagy in human HepG2 cells assessed as induction of VISTA degradation at 5 uM by Western blotting analysis; type: functional, cell-based
CT26 [17] = assay: Antitumor activity against mouse CT26 cells implanted in BALB/c mouse assessed as tumor growth inhibition at 60 mg/kg, po administered once daily for 15 days; type: functional; conditions: CT26, 360 h, time 15 day, read-out: TGI
HepG2 [18] = assay: Induction of autophagy in human HepG2 cells assessed as induction of VISTA degradation at 10 uM measured after 24 hrs in presence of MG132 by Western blotting analysis; type: functional, cell-based
CT26 [19] = assay: Antitumor activity against mouse CT26 cells implanted in BALB/c mouse assessed as tumor growth inhibition at 30 mg/kg, po administered once daily for 15 days; type: functional; conditions: CT26, 360 h, time 15 day, read-out: TGI
HepG2 [20] = assay: Induction of autophagy in human HepG2 cells assessed as induction of VISTA degradation at 10 uM measured after 24 hrs in presence of 3-MA by Western blotting analysis; type: functional, cell-based
[21] = Oral bioavailability in Sprague-Dawley rat at 25 mg/kg measured upto 24 hrs by LC-MS/MS analysis; type: ADME, organism-based; conditions: in vivo
HepG2 [22] = assay: Induction of autophagy in human HepG2 cells assessed as increase in LC3II expression at 10 uM measured after 24 hrs in presence of chloroquine by Western blotting analysis; type: functional, cell-based
MDA-MB-231 [23] = assay: Antitumor immunity against human MDA-MB-231 cells cocultured with CD3/CD28/CD2 T cell activator stimulated human PBMC cells assessed as reduction in cell growth by measuring LDH release pre-treated with compound for 2 hrs measured after 12 hrs; type: functional, cell-based; conditions: dose 0.313-5 µM, time 14.0 hrs
[24] = Toxicity in BALB/c mouse implanted with mouse CT26 cells assessed as reduction in body weight at 30 to 120 mg/kg, po administered once daily for 15 days; type: organism-based; conditions: in vivo, 360 h, dose 30-120 mg/kg, time 15 day
CT26 [25] = assay: Antitumor activity against po dosed mouse CT26 cells implanted in BALB/c mouse assessed as reduction in tumor growth administered once daily for 15 days; type: functional, organism-based; conditions: dose 30-120 mg/kg, time 15.0 day
CT26 [26] = assay: Antitumor activity against mouse CT26 cells implanted in BALB/c mouse assessed as reduction in tumor growth at 60 mg/kg, po administered once daily for 15 days; type: functional, organism-based; conditions: time 15.0 day

pKd [1]: 6.43
inhibition [2]: Active
Structure (SMILES): CC(=O)NCCNCc1ccc(-c2nc3ccc(-c4ccccc4)c(C)c3[nH]2)cc1

pKd [1]: 5.94
Structure (SMILES): CC(=O)NCCNCc1cccc(-c2nc3ccc(Br)c(C)c3[nH]2)c1

pKd [1]: 6.12
Structure (SMILES): Cc1c(-c2ccccc2)ccc2nc(-c3cccc(CNCC[C@@H]4CCC(=O)N4)c3)[nH]c12

Structure (SMILES): Cc1c(-c2ccccc2)ccc2nc(-c3cccc(CNCCO)c3)[nH]c12
Activity (MDA-MB-231 [3]): Non-Toxic
pKd [4]: 5.17
Activity (HepG2 [5]): Active
inhibition [2]: Active
Activity (HepG2 [6]): Dose-Dependent Effect
Activity (HepG2 [7]): inactive
Activity (CT26 [8]): Dose-Dependent Effect
Activity (CT26 [9]): Active
Activity (HepG2 [10]): Dose-Dependent Effect
Activity (HepG2 [11]): inactive
inhibition in vivo at 120 mg/kg (CT26 [12]): 59%
Activity (CT26 [13]): Active
Activity (PBMC): Non-Toxic
Activity (CT26 [14]): Active
Activity [15]: Non-Toxic
Activity (HepG2 [16]): Active
inhibition in vivo at 60 mg/kg (CT26 [17]): 41%
Activity (HepG2 [18]): Active
inhibition in vivo at 30 mg/kg (CT26 [19]): 29%
Activity (HepG2 [20]): inactive
bioavailability [21]: 16%
Activity (HepG2 [22]): Active
Activity (MDA-MB-231 [23]): Dose-Dependent Effect
Activity [24]: Non-Toxic
Activity (CT26 [25]): Dose-Dependent Effect

pKd [1]: 5.95
Structure (SMILES): Cc1c(-c2ccccc2)ccc2nc(-c3ccc(CNCCO)cc3)[nH]c12

Structure (SMILES): C[C@@H](O)[C@H](NC(=O)N[C@@H](CC(N)=O)c1nc([C@@H](N)CO)no1)C(=O)O
Activity (CT26 [26]): Active
Activity (HepG2 [16]): inactive

pKd [1]: 5.75
Structure (SMILES): Cc1c(-c2ccccc2)ccc2nc(-c3cccc(CNC[C@H](O)CC(=O)O)c3)[nH]c12

pKd [1]: 5.98
Structure (SMILES): Cc1c(-c2ccccc2)ccc2nc(-c3cccc(CNCC(=O)O)c3)[nH]c12

pKd [1]: 5.51
Structure (SMILES): CC(=O)NCCNCc1cccc(-c2nc3cccc(C)c3[nH]2)c1

pKd [1]: 6.31
Structure (SMILES): Cc1c(-c2ccccc2)ccc2nc(-c3cccc(CNCCN)c3)[nH]c12

pKd [1]: 6.73
inhibition [2]: Active
Structure (SMILES): CC(=O)NCCNCc1cccc(-c2nc3ccc(-c4ccccc4)c(C)c3[nH]2)c1
